This assay concerns the target T1, IRAK4 (Homo sapiens, UniProt Q9NWZ3).
T1 construct: purchased CARNA Bioscience 09-145
T1 sequence (Q9NWZ3 1-460): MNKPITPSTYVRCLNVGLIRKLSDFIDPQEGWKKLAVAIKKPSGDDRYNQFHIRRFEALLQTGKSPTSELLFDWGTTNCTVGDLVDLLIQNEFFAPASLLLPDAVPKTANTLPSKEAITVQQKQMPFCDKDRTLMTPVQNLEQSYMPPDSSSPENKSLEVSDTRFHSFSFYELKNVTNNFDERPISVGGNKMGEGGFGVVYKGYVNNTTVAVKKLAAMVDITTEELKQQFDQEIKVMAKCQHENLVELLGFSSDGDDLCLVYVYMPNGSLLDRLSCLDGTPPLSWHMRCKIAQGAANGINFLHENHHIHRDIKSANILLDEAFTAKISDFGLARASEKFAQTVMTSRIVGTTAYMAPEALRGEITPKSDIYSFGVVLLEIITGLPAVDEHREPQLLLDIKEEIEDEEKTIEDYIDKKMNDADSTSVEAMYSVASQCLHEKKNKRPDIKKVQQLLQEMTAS
The assay is described as follows: IRAK-4 activity inhibition assay (Caliper, Peptide 8, 37 μM ATP). To be noted: 3.5 nM IRAK4, 1.5 μM Peptide 8, 37 μM ATP, 28° C. 40 minutes; read-out: IRAK-4 activity inhibition IC50. Type of assay: biochemical.
With `CCC1CCc2c(sc3ncnc(NC4CCN(Cc5ccccc5)CC4)c23)C1` (stereo not drawn) [Compound I-20], the 50% inhibitory concentration (IC50) was in the range of 20 to 50 µM.

In the case of `CN[C@H]1CC[C@H](N(C)c2ncnc3sc4c(c23)CCC4)CC1` [Compound I-146, (1r,4r)-N1-(6,7-dihydro-5H-cyclopenta[4,5]thieno[2,3-d]pyrimidin-4-yl)-N1,N4-dimethylcyclohexane-1,4-diamine], the IC50 is less than 5 µM.

With `CN(CC(=O)Nc1ccccc1)[C@H]1CC[C@H](Nc2ncnc3sc4c(c23)CCC4)CC1` [Compound I-114, 2-[methyl[4-([7-thia-9,11-diazatricyclo[6.4.0.0^[2,6]]dodeca-1(8),2(6),9,11-tetraen-12-yl]amino)cyclohexyl]amino]-N-phenylacetamide], the half-maximal inhibitory concentration (IC50) is less than 5 µM.

For the compound `N[C@H]1CC[C@@H](Nc2ncnc3sc4c(c23)CCC4)CC1` [Compound I-154, (1s,4s)-N1-(6,7-dihydro-5H-cyclopenta[4,5]thieno[2,3-d]pyrimidin-4-yl)cyclohexane-1,4-diamine], the IC50 was 5 to 20 µM.

As to `CCC1CCc2c(sc3ncnc(N4CCC(C(=O)NO)CC4)c23)C1` (stereo not drawn) [Compound I-14], the IC50 is less than 5 µM.

As for `CN(CCc1ccccc1)[C@H]1CC[C@H](Oc2ncnc3sc4c(c23)CCC4)CC1` [Compound I-121, N-methyl-N-(2-phenylethyl)-4-[7-thia-9,11-diazatricyclo[6.4.0.0[2,6]]dodeca-1(8),2(6),9,11-tetraen-12-yloxy]cyclohexan-1-amine], the IC50 was less than 5 µM.

In the case of `CN[C@H]1CC[C@H](Nc2ncnc3sc(C)c(C)c23)CC1` [Compound I-44, trans-N^1-(5,6-dimethylthieno[2,3-d]pyrimidin-4-yl)-N^4-methylcyclohexane-1,4-diamine], the IC50 is less than 5 µM.

With `CN(Cc1cccc(C(=O)O)c1)[C@H]1CC[C@H](Nc2ncnc3sc4c(c23)CCC4)CC1` [Compound I-167, 3-([methyl[4-([7-thia-9,11-diazatricyclo[6.4.0.0^[2,6]]dodeca-1(8),2(6),9,11-tetraen-12-yl]amino)cyclohexyl]amino]methyl)benzoic acid], the 50% inhibitory concentration (IC50) was less than 5 µM.

For the compound `CC1CCc2sc3ncnc(N[C@H]4CC[C@H](N(C)C)CC4)c3c2C1` (stereo partly drawn) [Compound I-54, trans-N^1,N^1-dimethyl-N^4-(6-methyl-5,6,7,8-tetrahydrobenzo[4,5]thieno[2,3-d]pyrimidin-4-yl)cyclohexane-1,4-diamine], the IC50 was less than 5 µM.

As to `C[C@@H]1CCc2sc3ncnc(N[C@H]4CC[C@H](O)CC4)c3c2C1` [Compound I-47, trans-4-(((R)-6-methyl-5,6,7,8-tetrahydrobenzo[4,5]thieno[2,3-d]pyrimidin-4-yl)amino)cyclohexanol], the IC50 is 5 to 20 µM.

With `CCC(C)c1ccc(S(=O)(=O)N2CCN(c3ncnc4sc5c(c34)CCC(C)C5)CC2)cc1` (stereo not drawn) [Compound I-24], the IC50 is greater than 50 µM.

As for `CN(C)[C@H]1CC[C@H](N(C)c2ncnc3sc4c(c23)CCC4)CC1` [Compound I-144, (1r,4r)-N1-(6,7-dihydro-5H-cyclopenta[4,5]thieno[2,3-d]pyrimidin-4-yl)-N1,N4,N4-trimethylcyclohexane-1,4-diamine], the IC50 is less than 5 µM.

`CN(CCCc1ccccc1)[C@H]1CC[C@H](Oc2ncnc3sc4c(c23)CCC4)CC1` [Compound I-116, N-methyl-N-(3-phenylpropyl)-4-[7-thia-9,11-diazatricyclo[6.4.0.0^[2,6]]dodeca-1(8),2(6),9,11-tetraen-12-yloxy]cyclohexan-1-amine]: the IC50 is less than 5 µM.

Regarding `CN(Cc1ccncc1F)[C@H]1CC[C@H](Nc2ncnc3sc4c(c23)CCC4)CC1` [Compound I-111, 1-N-[(3-fluoropyridin-4-yl)methyl]-1-N-methyl-4-N-[7-thia-9,11-diazatricyclo[6.4.0.0^[2,6]]dodeca-1(12),2(6),8,10-tetraen-12-yl]cyclohexane-1,4-diamine], the IC50 is less than 5 µM.

Take `CN[C@H]1CC[C@H](Nc2ncnc3sc4c(c23)CCCC4)CC1` [Compound I-53, trans-N^1-methyl-N4-(5,6,7,8-tetrahydrobenzo[4,5]thieno[2,3-d]pyrimidin-4-yl)cyclohexane-1,4-diamine]: the IC50 was less than 5 µM.

Consider `c1nc(NC2CCOCC2)c2c3c(sc2n1)CCC3` [Compound I-8], for which the concentration for half-maximal inhibition (IC50) lay in the range of 20 to 50 µM.

Turning to `CN(CCCc1ccccc1)[C@H]1CC[C@H](Nc2ncnc3sc4c(c23)CCC4)CC1` [Compound I-118], the concentration for half-maximal inhibition (IC50) was less than 5 µM.

`CN(Cc1cccnc1)[C@H]1CC[C@H](Nc2ncnc3sc4c(c23)CCC4)CC1` [Compound I-163, 1-N-methyl-1-N-(pyridin-3-ylmethyl)-4-N-[7-thia-9,11-diazatricyclo[6.4.0.0^[2,6]]dodeca-1(12),2(6),8,10-tetraen-12-yl]cyclohexane-1,4-diamine]: the IC50 was less than 5 µM.

Turning to `CN(Cc1ccccc1)[C@H]1CC[C@H](Nc2ncnc3sc4c(c23)CCC4)CC1` [Compound I-151, (1r,4r)-N1-benzyl-N4-(6,7-dihydro-5H-cyclopenta[4,5]thieno[2,3-d]pyrimidin-4-yl)-N1-methylcyclohexane-1,4-diamine], the IC50 is less than 5 µM.

For the compound `CC(=O)N[C@H]1CC[C@H](Nc2ncnc3sc4c(c23)CCC4)CC1` [Compound I-11, N-(trans-4-((6,7-dihydro-5H-cyclopenta[4,5]thieno[2,3-d]pyrimidin-4-yl)amino)cyclohexyl)acetamide], the IC50 was in the range of 5 to 20 µM.

Regarding `CN(CC(=O)NCc1ccccc1)[C@H]1CC[C@H](Nc2ncnc3sc4c(c23)CCC4)CC1` [Compound I-123, N-benzyl-2-(((1r,4r)-4-((6,7-dihydro-5H-cyclopenta[4,5]thieno[2,3-d]pyrimidin-4-yl)amino)cyclohexyl)(methyl)amino)acetamide], the half-maximal inhibitory concentration (IC50) was less than 5 µM.

On to `CCN(Cc1ccccc1)[C@H]1CC[C@H](Nc2ncnc3sc4c(c23)CCC4)CC1` [Compound I-120, 1-N-benzyl-1-N-ethyl-4-N-[7-thia-9,11-diazatricyclo[6.4.0.0[2,6]]dodeca-1(8),2(6),9,11-tetraen-12-yl]cyclohexane-1,4-diamine], for which the IC50 was less than 5 µM.

Take `CN(CCc1cccc(Cl)c1)[C@H]1CC[C@H](Nc2ncnc3sc4c(c23)CCC4)CC1` [Compound I-107, 1-N-[2-(3-chlorophenyl)ethyl]-1-N-methyl-4-N-[7-thia-9,11-diazatricyclo[6.4.0.0^[2,6]]dodeca-1(8),2(6),9,11-tetraen-12-yl]cyclohexane-1,4-diamine]: the IC50 was less than 5 µM.

On to `CN(Cc1cnccn1)[C@H]1CC[C@H](Nc2ncnc3sc4c(c23)CCC4)CC1` [Compound I-105], for which the IC50 is less than 5 µM.

Turning to `c1nc(N[C@H]2CC[C@@H](N3CCOCC3)CC2)c2c3c(sc2n1)CCC3` [Compound I-160, N-((1s,4s)-4-morpholinocyclohexyl)-6,7-dihydro-5H-cyclopenta[4,5]thieno[2,3-d]pyrimidin-4-amine], the IC50 fell in the range of 5 to 20 µM.

With `O=C(O)CN[C@H]1CC[C@H](Nc2ncnc3sc4c(c23)CCC4)CC1` [Compound I-65, 2-((trans-4-((6,7-dihydro-5H-cyclopenta[4,5]thieno[2,3-d]pyrimidin-4-yl)amino)cyclohexyl)amino)acetic acid], the IC50 was in the range of 5 to 20 µM.

As to `C[N+](C)([O-])[C@H]1CC[C@H](Nc2ncnc3sc4c(c23)CCC4)CC1` [Compound I-128, N-[4-(dimethylnitroso)cyclohexyl]-7-thia-9,11-diazatricyclo[6.4.0.0[2,6]]dodeca-1(8),2(6),9,11-tetraen-12-amine], the IC50 was in the range of 20 to 50 µM.

By IC50 is commonly meant the concentration that inhibits the measured activity by half.

Source of the values: patent US9340554B2, “IRAK inhibitors and uses thereof” (Nimbus Iris, Inc., priority 2011, dated 2016).
